According to patent US8586369B2, “Ion channel-forming peptides” (The Regents of the University of California, priority 2007, dated 2013):

Experiments:
Format in all cases: biochemical
[1] = Single channel conductance of gA phosphate and its hydrolysis product in planar lipid bilayers (Example 3); settings: for single channel conductance (γ): 50 mM CsCl, 1 mM MgCl2, 0.5 mM K2CO3, pH 9.8, slopes of I-V curves
Method: Formation of Planar Lipid Bilayers: Planar lipid bilayers were formed by the “folding technique” as previously described. The recording electrolyte was 1 mM MgCl2, 50 mM CsCl buffered with 0.5 mM K2CO3 at pH 9.8. Briefly, we spread a solution containing 25 mg mL^−1 1,2-diphytanoyl-sn-glycero-3-phosphatidylcholine (DiPhyPC) lipids in pentane at the air-water interface of the electrolyte solution in both compartments of the bilayer setup. 3 mL of the total volume of 4 mL of electrolyte solution in each bilayer compartment was aspirated into a syringe, followed by dispensing the electrolyte solution back into each compartment.
Ion Channel Measurements: We performed single channel recordings in “voltage clamp mode” using Ag/AgCl pellet electrodes (Warner Instruments) in each compartment of the bilayer setup. Data acquisition and storage was carried out using custom software in combination with an EPC-7 patch clamp amplifier from Heka (set at a gain of 10 mV pA-1 and a filter cutoff frequency of 3 kHz). The data acquisition board (National Instruments, Austin, Tx) for the amplifier was set to a sampling frequency of 15 kHz. The current traces shown in the FIG. 2 were further filtered using a digital Gaussian low-pass filter with a cutoff frequency of 4 Hz.
Analysis of the single channel current traces was performed by computing histograms of the currents from the original current versus time traces with ClampFit 9.2 software from Axon Instruments. From these histograms we extracted the main current values by fitting a Gaussian function to the peaks in the histograms. All conductance values were obtained from the slopes of I-V curves.

[2] = test system: alkaline phosphatase (AP); assay: Enzymatic hydrolysis of gA phosphate in the presence of AP monitored by single ion channel recordings
Method: To detect a change in single ion channel currents, gA phosphate was added to a final concentration of about 200 pM to both compartments of a planar lipid bilayer platform (FIG. 15) containing a recording electrolyte. AP was added to a final concentration of about 600 nM and the enzymatic conversion of gA phosphate to its hydrolysis product over time was monitored. We estimated the time-dependent conversion of gA phosphate to its hydrolysis product by comparing the fraction of events from gA phosphate to the fraction of events from its hydrolysis product throughout the course of the reaction. […]
Procedure for monitoring the enzymatic hydrolysis of 6 in the presence of AP using single ion channel recordings: For in situ measurements, about 19 μL (from a 100 ng mL-l solution in ethanol) of gA phosphate (to afford a final concentration of 200 pM of 6) was added to each compartment of a bilayer setup containing recording electrolyte. […] Ion channel events were recorded continuously over the course of the reaction. […] Single ion channel events were recorded during a 10 min time window once a day (50-250 events) over the course of 4 days by filling both compartments of the bilayer setup with 4 mL of the solutions with the desired AP concentration. […]

[3] = Single channel recordings of gA derivatives in planar lipid bilayers (Example 2); settings: 20 mM KCl
Method: Formation of Planar Lipid Bilayers: Planar lipid bilayers were formed by the “folding technique.” Briefly, a film (e.g., Teflon®, Eastern Scientific Inc, pore diameter 0.1-0.2 mm) that was pretreated on both sides of the pore with 2 μL of 5% (v/v) hexadecane in pentane. This film was mounted using vacuum grease (Dow Corning, High vacuum grease) to a custom-made Teflon chamber separating two buffer compartments each with a volume capacity of 4 mL. After addition of 1 mL of electrolyte (20 mM KCl buffered with 0.2 mM HEPES pH 7.4 or 140 mM KCl buffered with 10 mM phosphate pH 8.0) to each compartment, lipids were spread at the air-water interface of the electrolyte solution in both compartments. Three additional milliliters of the same electrolyte solution were added to each compartment to raise the liquid level above the aperture in the Teflon film. The bilayers were formed on the pore of the Teflon film by aspirating the electrolyte solution into a 3 mL syringe, followed by dispensing the electrolyte solution back into each compartment.
Ion Channel Measurements: Single channel recordings in “voltage clamp mode” were performed using Ag/AgCl pellet electrodes (Warner Instruments) in each compartment of the bilayer setup. Data acquisition and storage was carried out using custom software in combination with an EPC-7 patch clamp amplifier from Heka (set at a gain of 10 mV pA^−1 and a filter cutoff frequency of 3 kHz). The data acquisition board for the amplifier was set to a sampling frequency of 15 kHz. All current traces shown in the figures were further filtered using a digital Gaussian low-pass filter with a cutoff frequency of 4 Hz.
The analysis of single channel current traces was performed by computing histograms of the currents from the original current versus time traces with ClampFit 9.2 software from Axon Instruments. From these histograms, main current values were extracted by fitting a Gaussian function to the peaks in the histograms. […]

[4] = Monitoring a 1,3-dipolar cycloaddition (click) reaction in situ using single ion channel recordings; settings: 40 pM gramicidazide, 2 mM propargyl sulfonate, 0.5 mM CuSO4
Method: Gramicidazide was added to a final concentration of 40 pM to both 4 mL chambers of a stirred lipid bilayer setup comprised of zwitterionic 1,2-diphytanoyl-sn-glycero-3-phosphatidylcholine (DiPhyPC) lipids that separated two compartments containing 20 mM KCl, 0.2 mM HEPES buffer, 2 mM sodium ascorbate (as a reducing agent for Cu^II), and 2 mM propargyl sulfonate. The final pH of this solution was 6.9. CuSO4 was added (to give a final concentration of Cu^II of 0.5 mM) to both chambers of the bilayer setup and recorded the single ion channel activity over time. […] The cycloaddition reaction was monitored at a constant applied potential of +75 mV. […]
Monitoring a 1,3-dipolar cycloaddition (“click”) reaction in situ using single ion channel recordings: About 3 μl, (from a 100 ng mL^−1 solution in ethanol) of gramicidazide was added (to afford a final concentration of 40 pM of gramicidazide) to each compartment of a bilayer setup containing as electrolyte 20 mM KCl and 0.2 mM HEPES buffer. […] This strategy made it possible to observe measured currents that would frequently return to baseline (i.e., current steps separated by no observed channel events). Consequently, a small number of events over time were observed, and thus analyzed the data over a window of time rather than at specific time points. […] For the 4-15 minute time window, we measured 26 total channel events. […]

Row | Substance | single channel conductance (γ) [1] | single channel conductance (γ) ([1]; listed as 6) | single channel conductance (γ) ([1]; listed as phosphorylated derivative) [pS] | factor by which conductance is larger than that of the gA phosphate hydrolysis product ([1]; 125 mV, buffered recording electrolyte) | time after which almost all recorded ion channel events originated from the hydrolysis product ([2]; 200 pM gA phosphate, 600 nM AP, in situ) [min] | hydrolysis in the absence of AP ([2]; ion channel experiments over the course of 1 h, pH 9.8 recording electrolyte) | single channel conductance (γ) ([3]; 0.2 mM HEPES, 2 mM sodium ascorbate, 2 mM propargyl sulfonate, 0.5 mM CuSO4, pH 6.9, pure samples) [pS] | ion channel activity in planar lipid bilayers ([3]; applied potential 100 mV, 0.2 mM HEPES pH 7.4) | time after which the click reaction was complete [4] [min]
1 | gramicidine A (gA) phosphate [gA phosphate] | ≈ 16 pS | 16.4±0.3 pS and ≈ 16 pS | 16.4±0.3 | 4 | 35 | No hydrolysis was observed |  |  | 
2 | gramicidazide |  |  |  |  |  |  | 3.3±0.1 | retained well-defined ion channel activity | ~90
